Laboratory results: patent publication US20250090539A1, “COMBINATION TREATMENT OF CANCERS” (Repare Therapeutics Inc., priority 2023, published 2025)
Counter-ions that a name gives are not always drawn. Like-named read-outs stand apart in the source and are kept apart here.

Assays:
[1] = maximum tolerated dose in mice; type: in vivo
[2] = test system: SUM149PT BRCA1 mutated xenograft; type: in vivo; conditions: single agents at low doses: camonsertib 10 mg/kg PO 3 days on/4 days off; gemcitabine 20 mg/kg QW; 28 days
Procedure: The relative tumor xenograft volume (FIG. 4A) and change in body weight in mice treated (FIG. 4B) is shown for mice treated with gemcitabine at 20 mg/kg QW on Day 1 and/or camonsertib at 10 mg/kg PO on different schedules weekly for 28 days. Results are expressed as mean±SEM, N=7/group in female NOD-SCID mice. Statistical differences were established by Student's T-test (GraphPad Prism v9) with Welch's correction; ns=not significant, *p<0.05, **p<0.01.
A xenograft model was employed to assess the effect of camonsertib in combination with gemcitabine on tumor formation in an animal model. Mice harboring established tumors were treated with a vehicle control, camonsertib (10 mg/kg once per day with 3 days on/4 days off), gemcitabine (20 mg/kg once per week), or a combination of both camonsertib (once per day selected from 3 days on/4 days off, 2 days on/5 days off, or 1 day on/6 days off) and gemcitabine (once per week) for 28 days.
Relative tumor xenograft volume of the mice treated with gemcitabine at 20 mg/kg QW on Day 1 and/or camonsertib at 10 mg/kg PO on different schedules weekly for 28 days is shown in FIG. 4A and the change in body weight is shown in FIG. 4B. Results are expressed as mean±SEM, N=7/group in female NOD-SCID mice. Statistical differences were established by Student's T-test (GraphPad Prism v9) with Welch's correction; ns=not significant, *p<0.05, **p<0.01.

[3] = test system: SUM149PT breast cancer cell line; assay: CellTiter Glo cell viability / ZIP synergy in BRCA1mut model; type: cell-based; conditions: single agent at the same low nM doses
Procedure: FIGS. 2A-2B are charts showing the ZIP synergy score matrix in a BRCA1mut model treated with gemcitabine at low-nanomolar concentrations (15 nM) synergizing with camonsertib 7.5 nM (2 days on (FIG. 2A) or 3 days on (FIG. 2B)). ZIP synergy scores greater than 10 indicate drug synergy and scores less than −10 indicates antagonism. Mean CTG cell viability data from 3 independent experiments were processed with SynergyFinder (https://synergyfinder.fimm.fi/; PMIDs: 35580060, 26949479). Dotted lines indicated doses exerting maximum synergy.
FIGS. 3A-3B show the synergy of gemcitabine with camonsertib in a BRCA1 mut model. […] FIG. 3B is a graph of the viability of the SUM149PT treated with the indicated compounds and schedules. Data (circles) from three independent experiments is provided with mean (bars)±SD. The P value calculated with an unpaired two-tailed Student's t-test. Cell viability was read out at day 8 with a CellTiter Glo (CTG) assay.
To assess the synergy between camonsertib and gemcitabine in a BRCA1-mutated cancer cell model in vitro, a SUM149PT breast cancer cell line was employed. The combination was administered at various dosing schedules—1, 2, or 3 day treatment with camonsertib combined with a single 4 h dose of gemcitabine (FIG. 3A).

[4] = humans, cited from earlier work

SMILES	MTD [1] [mg/kg]	anti-tumor activity (relative tumor xenograft volume) [2]	cell viability (CTG, day 8) [3]	MTD ([1]; mouse, in vivo, read-out: MTD) [mg/kg]	mean gemcitabine peak plasma concentration ([4]; 800 mg/m^2) [µM]	mean gemcitabine peak plasma concentration ([4]; 1000 mg/m^2) [µM]
C[C@@H]1COCCN1c1cc([C@]2(O)C[C@H]3CC[C@@H](C2)O3)c2cnn(-c3cc[nH]n3)c2n1 [camonsertib, (1R,5S)-3-[6-[(3R)-3-methylmorpholin-4-yl]-1-(1H-pyrazol-5-yl)pyrazolo[3,4-b]pyridin-4-yl]-8-oxabicyclo[3.2.1]octan-3-ol]	30	reduced activity	only modest effect	–	–	–
Nc1ccn([C@@H]2O[C@H](CO)[C@@H](O)C2(F)F)c(=O)n1 [gemcitabine, 2-Deoxy-2,2-difluorocytidine hydrochloride]	–	reduced activity	only modest effect	100	24	32
